Experiments:
[1] = system: platelet aggregation induced by arachidonic acid; assay: Platelet Aggregation Prevention Activity (arachidonic acid induced, platelet rich plasma); assay type: cell-based, Nippon white rabbit; conditions: compound 100 μM; arachidonic acid final concentration 0.2 mM; rabbit PRP
Description: Platelet rich plasma (PRP) and platelet poor plasma (PPP) were prepared from venous blood of Nippon white rabbit. The platelet aggregation activity was measured in accordance with the method described in Born, G. V. R.; Nature, 194, 927 (1962) and the activity of preventing platelet agglutination of the compound against platelet aggregation induced by arachidonic acid (final concentration, 0.2 mM) was determined with an Aggrigometer (made by Payton Co.).

Hyperlipedemic rat = assay: Lipid Reducing Activity (cholesterol/bile acid fed hyperlipidemic rats, serum lipids); assay type: in vivo, male Sprague-Dawley rats; conditions: 100 mg/kg/day p.o., 4 days; for HDL-C/LDL-C (cont. = 1): relative to control; for HDL-Chol** (cont. = 1): relative to control = 1
Description: Feed containing 1.5% cholesterol and 0.5% bile acid was given to male Sprague-Dawley rats aging 4 weeks old after birth for 7 days. A suspension of the compound of the present invention in a 0.5% aqueous methyl cellulose solution was administered daily via oral catheter for 4 days. After fastening overnight, blood was collected under ether anesthesia to determine the quantities of the total HDL and cholesterol in serum. The measurements of cholesterol and HDL were performed in accordance with the method described in Schettler, G. & Hussel; Arbetsmed. Sozialmed. Praventived., 10, 25 (1975) and the method described in T. T. Ishikawa et al.; Lipids, 11, 628 (1976), respectively.

## CCOC(=O)C(C)(C)CCCCCOc1ccc(-c2csc(-c3cccnc3)n2)cc1 [Example 2, ethyl 2,2-dimethyl-7-[p-[2-(3-pyridyl)-4-thiazolyl]phenoxy]heptanoate]
[1]
  Platelet Aggregation inhibition (%) A.A.: 16%
Hyperlipedemic rat
  Reduction Rate of T* and Chol** (*triglyceride, **cholesterol): 59%
  HDL-C/LDL-C (cont. = 1): 22
  HDL-Chol** (cont. = 1): 7.62

## CCOC(=O)C(C)(C)CCCOc1ccc(-c2csc(C)n2)cc1 [Example 5, ethyl 5-[p-(2-methyl-4-thiazolyl)phenoxy]-2,2-dimethylpentanoate]
[1]
  Platelet Aggregation inhibition (%) A.A.: 50%
Hyperlipedemic rat
  Reduction Rate of T* and Chol** (*triglyceride, **cholesterol): 69%
  HDL-C/LDL-C (cont. = 1): 8.00
  HDL-Chol** (cont. = 1): 1.54

## CCOC(=O)C(C)(C)CCCCOc1ccc(OCCCCCn2ccnc2)cc1 [Example 30, ethyl 6-[p-[5-(1-imidazolyl)pentyloxy]phenoxy]-2,2-dimethylhexanoate]
[1]
  Platelet Aggregation inhibition (%) A.A.: 57%
Hyperlipedemic rat
  Reduction Rate of T* and Chol** (*triglyceride, **cholesterol): 48%
  HDL-C/LDL-C (cont. = 1): 5.00
  HDL-Chol** (cont. = 1): 1.78

## CCOC(=O)C(C)(C)CCCCOc1ccc(NC(=O)CCCn2ccnc2)cc1 [Example 35, Ethyl-6-[p-[4-(1-imidazolyl)-butyramido]phenoxy]-2,2-dimethylhexanoate]
[1]
  Platelet Aggregation inhibition (%) A.A.: 7%
Hyperlipedemic rat
  Reduction Rate of T* and Chol** (*triglyceride, **cholesterol): 52%
  HDL-C/LDL-C (cont. = 1): 5.4
  HDL-Chol** (cont. = 1): 2.49

## CCOC(=O)C(C)(C)CCCCCOc1ccc(NC(=O)CCCCn2ccnc2)cc1 [Example 39]
[1]
  Platelet Aggregation inhibition (%) A.A.: 100%
Hyperlipedemic rat
  Reduction Rate of T* and Chol** (*triglyceride, **cholesterol): 23%
  HDL-C/LDL-C (cont. = 1): 4.1
  HDL-Chol** (cont. = 1): 3.11

Source: patent US4794113A, “Imidazolyl phenoxy compounds and method of use” (Yamanouchi Pharmaceutical Co., Ltd., priority 1983, dated 1988)
